Data reported in US10155021B2, “Antimicrobial 4-oxoquinolizines” (Emergent Product Development Gaithersburg Inc., priority 2011, dated 2018).
≈ marks a conversion by molar mass, not a printed value. Like-named read-outs stand apart in the source and are kept apart here.

Experiments:
E. coli CTX-M-15 = assay: MIC, panel of quinolone-resistant strains (CLSI); format: cell-based; conditions: Escherichia coli, CTXM15; CIP R, ESBL
E. coli 2906 = assay: MIC, panel of quinolone-resistant strains (CLSI); format: cell-based; conditions: Escherichia coli, CIP R
Klebsiella ssp KPC-3 = assay: MIC, panel of quinolone-resistant strains (CLSI); format: cell-based, Klebsiella spp; conditions: KPC3, CIP R, ESBL
Pseudomonas ssp PER-1 = assay: MIC, panel of quinolone-resistant strains (CLSI); format: cell-based, Pseudomonas spp; conditions: PER1, CIP R, ESBL
P. aeruginosa 1388-3-02 = assay: MIC, panel of quinolone-resistant strains (CLSI); format: cell-based; conditions: Pseudomonas aeruginosa, 1388302; CIP R, POL R
P. aeruginosa 143-3-03 = assay: MIC, panel of quinolone-resistant strains (CLSI); format: cell-based; conditions: Pseudomonas aeruginosa, 143303; CIP I, POL R
[1] = tested on: Acinetobacter spp. H064200250; assay: MIC determination for Acinetobacter strains (Example 3); format: cell-based, Acinetobacter sp.; conditions: LEV R, CIP R, MRP R, IMP I
A. baumannii A329 [2] = assay: as above; format: cell-based; conditions: LEV R, CIP R, MRP R, IMP R, AMK R, TET R
A. baumannii A 401 = assay: as above; format: cell-based; conditions: A401, LEV R, CIP R, AMK R, TET R
[3] = tested on: resistant strains of A. baumannii and one strain of Acinetobacter sp.; assay: MIC without and with sub-inhibitory polymyxin B, whole panel / MIC ranges (Example 4; also strains not listed separately); format: cell-based; conditions: Acinetobacter baumannii
A. baumannii J2 [4] = assay: MIC without and with sub-inhibitory polymyxin B (Example 4); format: cell-based, Acinetobacter baumannii; conditions: Acinetobacter baumannii, J2, A. baumannii J2, without polymyxin B, read-out: MIC without PB
A. baumannii A329 [5] = assay: as above; format: cell-based, Acinetobacter baumannii; conditions: Acinetobacter baumannii
A. baumannii A401 [6] = assay: as above; format: cell-based, Acinetobacter baumannii; conditions: Acinetobacter baumannii, A401, A baumannii A 401, without polymyxin B, read-out: MIC without PB
A. baumannii A472 [7] = assay: as above; format: cell-based, Acinetobacter baumannii; conditions: Acinetobacter baumannii, A472, A. baumannii A472, without polymyxin B, read-out: MIC without PB
A. baumannii A473 [8] = assay: as above; format: cell-based, Acinetobacter baumannii; conditions: Acinetobacter baumannii
A. baumannii A489 [9] = assay: as above; format: cell-based, Acinetobacter baumannii; conditions: Acinetobacter baumannii, A489, A. baumannii A489, without polymyxin B, read-out: MIC without PB
A. baumannii J2 [10] = assay: Preliminary MBC without and with sub-inhibitory polymyxin B (Example 4); format: cell-based, Acinetobacter baumannii; conditions: Acinetobacter baumannii, J2, A. baumannii J2, without polymyxin B, preliminary MBC, read-out: MBC without PB
[11] = tested on: Acinetobacter sp. (H064200250); assay: as above; format: cell-based; conditions: Acinetobacter, without polymyxin B, preliminary MBC, read-out: MBC without PB
How it was run: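 Incubation 18-20 h, 37° C. MBC = lowest conc. with ~90% fewer colonies than positive control (single/no colonies).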

A. baumannii A329 [12] = assay: as above; format: cell-based, Acinetobacter baumannii; conditions: Acinetobacter baumannii, A329, A. baumannii A329, without polymyxin B, read-out: MBC without PB
A. baumannii A390 = assay: as above; format: cell-based, Acinetobacter baumannii; conditions: Acinetobacter baumannii, A390, A. baumannii A390, without polymyxin B, preliminary MBC, read-out: MBC without PB
A. baumannii A401 [13] = assay: as above; format: cell-based, Acinetobacter baumannii; conditions: Acinetobacter baumannii, A401, A baumannii A 401, without polymyxin B, preliminary MBC, read-out: MBC without PB
A. baumannii A472 [14] = assay: as above; format: cell-based, Acinetobacter baumannii; conditions: Acinetobacter baumannii, A472, A. baumannii A472, without polymyxin B, read-out: MBC without PB
A. baumannii A473 [15] = assay: as above; format: cell-based, Acinetobacter baumannii; conditions: Acinetobacter baumannii, A473, A. baumannii A473, without polymyxin B, read-out: MBC without PB
A. baumannii A489 [16] = assay: as above; format: cell-based, Acinetobacter baumannii; conditions: Acinetobacter baumannii, A489, A. baumannii A489, without polymyxin B, read-out: MBC without PB

Cc1c(-c2cc(F)c(N)cc2F)ccn2c(=O)c(C(=O)O)cc(C3CC3)c12 [Compound 2, 8-(3,6-difluoro-4-amino-phenyl)-1-cyclopropyl-9-methyl-4-oxo-quinolizine-3-carboxylic acid]
MIC (E. coli CTX-M-15): > 32 µg/mL
MIC (E. coli 2906): 32 µg/mL (≈ 86.4 µM)
MIC (Klebsiella ssp KPC-3): 8 µg/mL (≈ 21.6 µM)
MIC (Pseudomonas ssp PER-1): 16 µg/mL (≈ 43.2 µM)
MIC (P. aeruginosa 1388-3-02): 8 µg/mL (≈ 21.6 µM)
MIC (P. aeruginosa 143-3-03): 2 µg/mL (≈ 5.4 µM)
MIC [1]: 4 µg/mL (≈ 10.8 µM)
MIC (A. baumannii A329 [2]): 8 µg/mL (≈ 21.6 µM)
MIC (A. baumannii A 401): 4 µg/mL (≈ 10.8 µM)
MIC ([3]; read-out: MIC range without PB 01-10-2008 n = 8, without polymyxin B, 1st experiment, 8 strains): 0.5 to 16 µg/mL (≈ 1.35 to 43.2 µM)
MIC ([3]; without polymyxin B, 2nd experiment, 11 strains, read-out: MIC range without PB 14-10-2008 n = 11): 1 to 16 µg/mL (≈ 2.7 to 43.2 µM)
MIC (A. baumannii J2 [4]; 1st experiment): 4 µg/mL (≈ 10.8 µM)
MIC (A. baumannii J2 [4]; 2nd experiment, visual reading): 4 µg/mL (≈ 10.8 µM)
MIC (A. baumannii A329 [5]; A329, A. baumannii A329, without polymyxin B, 1st experiment, read-out: MIC without PB): 8 µg/mL (≈ 21.6 µM)
MIC (A. baumannii A329 [5]; A329, A. baumannii A329, without polymyxin B, 2nd experiment, visual reading, read-out: MIC without PB): 8 µg/mL (≈ 21.6 µM)
MIC (A. baumannii A329 [5]; A329, read-out: MIC +0.06 μg/ml PB, read with alamar blue, A. baumannii A329, +0.06 μg/ml polymyxin B, 2nd experiment, MIC read with alamar blue): 1 µg/mL
MIC (A. baumannii A401 [6]; 1st experiment): 4 µg/mL (≈ 10.8 µM)
MIC (A. baumannii A401 [6]; 2nd experiment, visual reading): 4 µg/mL (≈ 10.8 µM)
MIC (A. baumannii A472 [7]; 1st experiment): 4 µg/mL (≈ 10.8 µM)
MIC (A. baumannii A472 [7]; 2nd experiment, visual reading): 4 µg/mL (≈ 10.8 µM)
MIC (A. baumannii A473 [8]; A473, A. baumannii A473, without polymyxin B, 1st experiment, read-out: MIC without PB): 8 µg/mL (≈ 21.6 µM)
MIC (A. baumannii A473 [8]; A473, A. baumannii A473, without polymyxin B, 2nd experiment, visual reading, read-out: MIC without PB): 4 µg/mL (≈ 10.8 µM)
MIC (A. baumannii A473 [8]; A473, read-out: MIC +0.06 μg/ml PB, read with alamar blue, A. baumannii A473, +0.06 μg/ml polymyxin B, 2nd experiment, MIC read with alamar blue): 0.125 µg/mL
MIC (A. baumannii A489 [9]; 1st experiment): 2 µg/mL (≈ 5.4 µM)
MIC (A. baumannii A489 [9]; 2nd experiment, visual reading): 4 µg/mL (≈ 10.8 µM)
MBC (A. baumannii J2 [10]; 2nd experiment): 8 µg/mL (≈ 21.6 µM)
MBC (A. baumannii J2 [10]; 1st experiment): 4 µg/mL (≈ 10.8 µM)
MBC ([11]; Acinetobacter spp. H064200250 (OXA51), 2nd experiment): 8 µg/mL (≈ 21.6 µM)
MBC ([11]; Acinetobacter spp. H064200250, 1st experiment): 4 µg/mL (≈ 10.8 µM)
MBC (A. baumannii A329 [12]; 1st experiment): 8 µg/mL (≈ 21.6 µM)
MBC (A. baumannii A329 [12]; 2nd experiment): 8 µg/mL (≈ 21.6 µM)
MBC (A. baumannii A390; 2nd experiment): 16 µg/mL (≈ 43.2 µM)
MBC (A. baumannii A390; 1st experiment): 8 µg/mL (≈ 21.6 µM)
MBC (A. baumannii A401 [13]; 2nd experiment): 4 µg/mL (≈ 10.8 µM)
MBC (A. baumannii A401 [13]; 1st experiment): 2 µg/mL (≈ 5.4 µM)
MBC (A. baumannii A472 [14]; 1st experiment): 4 µg/mL (≈ 10.8 µM)
MBC (A. baumannii A472 [14]; 2nd experiment): 8 µg/mL (≈ 21.6 µM)
MBC (A. baumannii A473 [15]; 1st experiment): 2 µg/mL (≈ 5.4 µM)
MBC (A. baumannii A473 [15]; 2nd experiment): 4 µg/mL (≈ 10.8 µM)
MBC (A. baumannii A489 [16]; 1st experiment): 2 µg/mL (≈ 5.4 µM)
MBC (A. baumannii A489 [16]; 2nd experiment): 4 µg/mL (≈ 10.8 µM)
